Our source for the TGI values is PubChem BioAssay (NCI).

Some test systems named below: 786-0 renal; HT29 colon; KM12 colon; LOX IMVI melanoma; MDA-MB-231 breast; NCI/ADR-RES ovarian; SF-295 CNS; SF-539 CNS; SNB-19 CNS; UO-31 renal.
What all share (assay): NCI-60 cell line screen, 48 h

Molecules are shown by their SMILES.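 Dose response: 5 concentrations. Exposure: 48 h. Format: 96-well plates. Endpoint: linear interpolation; highest concentration if not reached. Definition used: TGI = concentration required for complete inhibition of growth.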

As to `Nc1nc(Cl)c(N)c(NCC2(CO)CC(CCCc3ccccc3)C2)n1` (stereo not given), the TGI in the assay with 786-0 renal is > 51.7 µM; with HT29 colon, > 22.8 µM; in the assay with KM12 colon, > 100 µM; in the assay with LOX IMVI melanoma it was 98.7 µM; with MDA-MB-231 breast it was 99.7 µM; in the assay with NCI/ADR-RES ovarian it was 63.1 µM. Moreover, the TGI in the assay with SF-295 CNS is > 59.5 µM; with SF-539 CNS it was > 64.2 µM; with SNB-19 CNS, > 100 µM; in the assay with UO-31 renal it was > 100 µM.
On to `c1ccc(CSCCc2ccncc2)cc1`, for which the TGI with 786-0 renal, in the assay on HT29 colon, in the assay with KM12 colon, with LOX IMVI melanoma, with MDA-MB-231 breast and with NCI/ADR-RES ovarian was > 100 µM throughout. Also, the TGI with SF-295 CNS, with SF-539 CNS, in the assay with SNB-19 CNS and in the assay on UO-31 renal was > 100 µM each time.
Take `Brc1ccc(-c2cn3ccncc3n2)cc1`: the TGI in the assay with 786-0 renal, with HT29 colon, with KM12 colon, in the assay with LOX IMVI melanoma, with MDA-MB-231 breast and in the assay with NCI/ADR-RES ovarian was > 100 µM each time. Also, the TGI in the assay on SF-295 CNS, with SF-539 CNS, with SNB-19 CNS and with UO-31 renal was > 100 µM throughout.
On to `Cc1ccc2nc(NC(=O)/C(Cc3nc4ccc(Cl)cc4[nH]c3=O)=N\NC(C)(C)C)sc2c1`, for which the TGI with 786-0 renal, in the assay with HT29 colon, in the assay on KM12 colon, in the assay with LOX IMVI melanoma, in the assay on MDA-MB-231 breast and with NCI/ADR-RES ovarian was > 100 µM each time. In addition, the TGI in the assay on SF-295 CNS, in the assay with SF-539 CNS, in the assay with SNB-19 CNS and in the assay on UO-31 renal was > 100 µM in each case.
With `COc1nc(N)c(N=CC(OC(C)=O)C(OC(C)=O)C(COC(C)=O)OC(C)=O)c(=O)n1C` (stereo not given), the TGI in the assay with 786-0 renal, with HT29 colon, with KM12 colon, with LOX IMVI melanoma, in the assay with MDA-MB-231 breast and with NCI/ADR-RES ovarian was > 100 µM in each case. Also, the TGI with SF-295 CNS, with SF-539 CNS, with SNB-19 CNS and in the assay with UO-31 renal was > 100 µM throughout.
On to `CCOC(=O)CSc1nnc(C(Sc2nc(-c3ccccc3)c(-c3ccccc3)[nH]2)C(C)C)n1-c1ccccc1` (stereo not given), for which the TGI in the assay with 786-0 renal was > 31.6 µM; in the assay on HT29 colon, 19.4 µM; in the assay on KM12 colon it was > 31.6 µM; in the assay on LOX IMVI melanoma it was 19.9 µM; with MDA-MB-231 breast, 64.1 µM; in the assay with NCI/ADR-RES ovarian, 84 µM. The TGI was > 10 µM with SF-295 CNS, 18.8 µM with SF-539 CNS, > 31.6 µM in the assay with SNB-19 CNS and > 31.6 µM in the assay with UO-31 renal.
As for `O=C(/C=C/c1csc(-c2ccccc2)n1)NCc1ccc(C(=O)NCc2ccccc2)cc1`, the TGI in the assay on 786-0 renal is > 100 µM; in the assay with HT29 colon, > 100 µM; with KM12 colon, > 100 µM; with LOX IMVI melanoma, > 100 µM; in the assay with MDA-MB-231 breast, 53.5 µM; in the assay with NCI/ADR-RES ovarian, > 100 µM. Further, the TGI in the assay with SF-295 CNS is > 100 µM; in the assay with SF-539 CNS, > 100 µM; in the assay with SNB-19 CNS it was 88.7 µM; in the assay on UO-31 renal, > 100 µM.
Take `Nc1ccc(CCN2CCN(CCCc3ccccc3)CC2)cc1`: the TGI in the assay on 786-0 renal, in the assay on HT29 colon, in the assay on KM12 colon, in the assay on LOX IMVI melanoma, in the assay with MDA-MB-231 breast and in the assay with NCI/ADR-RES ovarian was > 100 µM in each case. Also, the TGI with SF-295 CNS, with SF-539 CNS, in the assay on SNB-19 CNS and in the assay on UO-31 renal was > 100 µM in each case.
Consider `O=c1onc2c3ccccc3ncn12`, for which the TGI in the assay with 786-0 renal, in the assay on HT29 colon, in the assay with KM12 colon, with LOX IMVI melanoma, with MDA-MB-231 breast and with NCI/ADR-RES ovarian was > 100 µM each time. The TGI in the assay on SF-295 CNS, in the assay on SF-539 CNS, in the assay on SNB-19 CNS and with UO-31 renal was > 100 µM throughout.
In the case of `CC(C)=C/C=C1/CS(=O)(=O)C=C1C`, the TGI in the assay with 786-0 renal, in the assay with HT29 colon, with KM12 colon, with LOX IMVI melanoma, with MDA-MB-231 breast and in the assay with NCI/ADR-RES ovarian was > 100 µM each time. Besides, the TGI in the assay with SF-295 CNS, with SF-539 CNS, in the assay on SNB-19 CNS and in the assay with UO-31 renal was > 100 µM throughout.
For the molecule `COc1ccc(C(=O)c2[nH]c(Nc3ccc(Cl)cc3)c(C(=S)Nc3ccccc3)c2N)cc1`, the TGI with 786-0 renal, in the assay on HT29 colon, in the assay on KM12 colon, with LOX IMVI melanoma, with MDA-MB-231 breast and with NCI/ADR-RES ovarian was > 100 µM in each case. The TGI in the assay with SF-295 CNS, in the assay on SF-539 CNS, in the assay with SNB-19 CNS and in the assay with UO-31 renal was > 100 µM in each case.
